Assay results reported in patent publication US20240043394A1, “PROTEASOME ENHANCERS AND USES THEREOF” (Board of Trustees of Michigan State University, priority 2020, published 2024).

Tests used:
[1] = target: T1, purified human 20S proteasome (Homo sapiens, UniProt P25787+P60900); assay: 20S proteasome small peptide assay, combination of all three fluorogenic substrates (CT-L/Casp-L/T-L); format: biochemical; parameters: key to 20S proteasome activation, classed in words: compounds that exhibit a maximum fold enhancement of <2 fold (i.e. <200%) at a concentration >20 μM were considered inactive; details: for AC200 CT-L/Casp-L/T-L: concentration needed to double (200%) the rate of substrate degradation vs vehicle; for AC200 CT-L/Casp-L/T-L / Max Fold CT-L/Casp-L/T-L: three probes combined; for Max Fold CT-L/Casp-L/T-L: maximum fold rate increase vs vehicle control; for 20S proteasome activation, classed in words: concentrations tested 1.25 μM to 80 μM
T1 construct: purchased Boston Biochem or Life Sensors E-360 or ps020
Experimental: (§1) In vitro testing, 20S activation: The 20S proteasome activity of the compounds was assessed by utilizing the standard fluorogenic 7-amino-methylcoumarin (AMC) conjugated small peptide substrates that correspond to each of the catalytic sites in the 20S proteasome: chymotryptic-like site (Suc-LLVY-AMC), caspase-like site (Z-LLE-AMC), and trypsin-like site (Boc-LRR-AMC). When the small peptide substrate is degraded by the 20S proteasome, the AMC fluorophore is released and quantified to measure the rate of proteolytic cleavage. The 20S proteasome activity of the small molecules was evaluated at varying concentrations to determine the concentration at which the rate of proteolysis was doubled (i.e. the concentration needed to induce 200% activity) compared to the vehicle control (hereafter named as AC200). Concentrations ranging from 1.25 μM to 80 μM of each of compound were added to wells that contained 0.5 nM of purified human proteasome.
(§2) The overall enhancement of the rate of proteolysis of the 20S proteasome by a small molecule was first evaluated by adding a combination of all three peptide substrates to the treated sample. The combination of all three substrates represents a more accurate measurement of proteolytic activity of the proteasome because the catalytic sites housed in the β ring of the 20S proteasome communicate through allosteric interactions. For example, when a protein substrate encounters the chymotryptic-like site, a conformational change will occur activating the caspase-like site.^61 The individual contribution of each of the three catalytic sites was subsequently evaluated by adding only the corresponding peptide probes to gain insight into the contribution of each site on the overall enhanced proteolytic activity.
(§3) The fluorescent output, due to release of the AMC fluorophore, was then converted to the fold increase compared to a vehicle control sample, and the AC200 was calculated. […] (Table 1).
(§4) AC200 represents the concentration needed to double (e.g., 200%) the rate of substrate degradation compared to vehicle control. Max fold is the maximum fold rate increase compared to vehicle control.
(§5) 20S Proteasome Small Peptide Assay: Activity assays were carried out in a black flat/clear bottom 96 well plate with a […] volume. Concentrations of the potential activators, varying from 80 μM to 1.25 μM, were added to the well that contained 1 nM 20S proteasome purchased from either Boston Biochem (catalog number E-360) or Life Sensors (catalog number ps020), in a […] buffer at a pH of 7.8. This solution was left to incubate at 37° C. for 15 minutes. For the assay for the overall proteasome activity, 13.33 μM of each small peptide substrate is added. The 96 well plate is then placed into a plate reader (SpectraMax M5e spectrometer) and the plate reader will take a fluorescent reading every 5 minutes for an hour at 37° C. The enzymatic activity of the 20S proteasome is quantified using the fluorescent output at 380-460 nm, which is converted to max fold increase over the untreated sample. The activity of the individual catalytic assays is identical to the assay that assesses the overall activity of the 20S proteasome except only one small peptide substrate is added. To evaluate the activity of the CT-L and the Casp-L sites, 10 μM of the Suc-LLVY-AMC (Boston Biochem S-280) and Z-LLE-AMC (Boston Biochem S-230) were added, respectively. To evaluate the activity of the T-L site, 20 μM of the Boc-LRR-AMC (Boston Biochem S-300) is added.

[2] = target: T2, purified human 20S proteasome, Casp-L site (Homo sapiens, UniProt P25787+P60900); assay: 20S proteasome small peptide assay, Z-LLE-AMC caspase-like probe; format: biochemical; details: for AC200 Casp-L site: concentration needed to double rate vs vehicle; for Max Fold Casp-L site: maximum fold rate increase vs vehicle
T2 construct: purchased Boston Biochem or Life Sensors E-360 or ps020
Experimental: as §1, §2, §3, §4, §5

[3] = target: T3, purified human 20S proteasome, T-L site (Homo sapiens, UniProt P25787+P60900); assay: 20S proteasome small peptide assay, Boc-LRR-AMC trypsin-like probe; format: biochemical; details: for AC200 T-L site: concentration needed to double rate vs vehicle; for Max Fold T-L site: maximum fold rate increase vs vehicle
T3 construct: purchased Boston Biochem or Life Sensors E-360 or ps020
Experimental: as §1, §2, §3, §4, §5

[4] = target: T4, purified human 20S proteasome, CT-L site (Homo sapiens, UniProt P25787+P60900); assay: 20S proteasome small peptide assay, Suc-LLVY-AMC chymotryptic-like probe; format: biochemical; details: for AC200 CT-L site: concentration needed to double rate vs vehicle; for Max Fold CT-L site: maximum fold rate increase vs vehicle
T4 construct: purchased Boston Biochem or Life Sensors E-360 or ps020
Experimental: as §1, §2, §3, §4, §5

[5] = test system: A53T mutant α-synuclein in Hek-293T cells; assay: In cell degradation of A53T α-synuclein (Western blot); format: cell-based; details: 10 μM, 10 hours
Experimental: Error bars denote standard deviation. One-way ANOVA statistical analysis was used to determine statistical significance (ns=not significant, *p<0.05, **p<0.01, ***p<0.001, ****p<0.0001) (FIG. 4B).
Cellular efficacy: The A53T mutation of α-synuclein has been linked to early on-set familial Parkinson's disease and appears to oligomerize faster than the wild-type protein. […] Hek-293T cells were transiently transfected with an inducible Tet-One A53T mutant α-synuclein. The cells were treated with 100 ng/mL of doxycycline to induce the production of the A53T mutant. […] The cells were then lysed and the remaining A53T α-synuclein was visualized and quantified via Western Blotting (FIG. 4, n=4).
In cell degradation of A53T α-synuclein: In a 6 well plate, Hek293T cells were grown to 80% confluency and then transfected using Xfect biopolymer transfection system with the Tet-One A53T α-synuclein plasmid. 24 hours post transfection, 100 ng/mL of doxycycline was added to induce A53T α-synuclein expression. After 24 hours of protein induction, media was removed that contained the doxycycline and was washed with PBS. Media with the desired drug concentration or DMSO was added and treated for 10 hours. After the cells were treated with the test compounds or DMSO, the cells were scraped and the pelleted (300 g for 5 minutes). The supernatant was taken off and the cell pellet was washed with ice cold PBS and then lysed with RIPA buffer with added protease inhibitors. The cell lysate was incubated for 20 minutes on ice. The lysate was centrifuged for 15 minutes at 500 g and then the supernatant was collected. Concentrated SDS loading buffer was added and the samples were boiled for 10 minutes. The samples were then resolved on a 4-20% Tris-glycine SDS-PAGE gel and immunoblotted with mouse monoclonal anti α-synuclein IgG (1:2000) and anti-mouse HRP-linked IgG (1:2000). Blots were developed with ECL Westem reagent and imaged with an Azure Biosystems 3000 imager.

| Structure (SMILES) | AC200 CT-L/Casp-L/T-L [1] | Max Fold CT-L/Casp-L/T-L [1] | AC200 Casp-L site [2] | AC200 T-L site [3] | Max Fold T-L site [3] | AC200 CT-L site [4] | Max Fold CT-L site [4] | 20S proteasome activation, classed in words [1] | Max Fold Casp-L site [2] | decrease of A53T mutant α-synuclein, in words [5] | potency relative to compound 7 (times less potent) ([1]; 20S proteasome activation, compared with electron poor counterpart 7) | decrease of accumulated A53T α-synuclein ([5]; normalized to vehicle) |
| --- | --- | --- | --- | --- | --- | --- | --- | --- | --- | --- | --- | --- |
| Nc1cccc(CN2c3ccccc3Sc3ccc(Cl)cc32)c1 [Compound 9, 3-((2-Chloro-10H-phenothiazin-10-yl)methyl)aniline] | 3.6 µM | 8 fold | 3.8 µM | 9.2 µM | 10 fold | 6.5 µM | 9 fold | – | 10 fold | – | 3 × | – |
| N#CCCCCN1c2ccccc2Sc2ccc(Cl)cc21 [Compound 10, 5-(2-chloro-10H-phenothiazin-10-yl)pentanenitrile] | >80 µM | – | >80 µM | >80 µM | – | >80 µM | – | inactive | – | – | – | – |
| NC(=O)CCCCN1c2ccccc2Sc2ccc(Cl)cc21 [Compound 11, 5-(2-Chloro-10H-phenothiazin-10-yl)pentanamide] | >80 µM | – | >80 µM | >80 µM | – | >80 µM | – | inactive | – | – | – | – |
| NC(=O)C=CN1c2ccccc2Sc2ccc(Cl)cc21 [Compound 15, 3-(2-chloro-10H-phenothiazin-10-yl)propenamide] | >80 µM | – | >80 µM | >80 µM | – | >80 µM | – | inactive | – | – | – | – |
| CN(C)C(=O)CCN1c2ccccc2Sc2ccc(Cl)cc21 [Compound 16, 3-(2-chloro-10H-phenothiazin-10-yl)-N,N-dimethylpropanamide] | >80 µM | – | >80 µM | >80 µM | – | >80 µM | – | inactive | – | – | – | – |
| O=C(C=CN1c2ccccc2Sc2ccc(Cl)cc21)Nc1ccccc1 [Compound 17, 3-(2-chloro-10H-phenothiazin-10-yl)-N-phenylpropenamide] | 40 µM | 2.5 fold | >80 µM | 80 µM | 2 fold | >80 µM | – | – | – | – | – | – |
| CN(C(=O)CCN1c2ccccc2Sc2ccc(Cl)cc21)c1ccc(F)cc1 [Compound 18, 3-(2-chloro-10H-phenothiazin-10-yl)-N-(4-fluorophenyl)-N-methylpropanamide] | – | 3 fold | – | – | – | – | – | – | – | – | – | – |
| CCOC(=O)[C@]1(c2ccccc2)N=C(c2ccc(OC)cc2)N(Cc2ccccc2)[C@@H]1c1ccc(NCc2ccccc2)cc1 [TCH-165, reference compound] | – | – | – | – | – | – | – | – | – | – | – | 40% |

Second part, led by results:

| AC200 CT-L/Casp-L/T-L [1] | Max Fold CT-L/Casp-L/T-L [1] | AC200 Casp-L site [2] | AC200 T-L site [3] | Max Fold T-L site [3] | AC200 CT-L site [4] | Max Fold CT-L site [4] | 20S proteasome activation, classed in words [1] | Max Fold Casp-L site [2] | Structure (SMILES) | decrease of A53T mutant α-synuclein, in words [5] | potency relative to compound 7 (times less potent) ([1]; 20S proteasome activation, compared with electron poor counterpart 7) | decrease of accumulated A53T α-synuclein ([5]; normalized to vehicle) |
| --- | --- | --- | --- | --- | --- | --- | --- | --- | --- | --- | --- | --- |
| 1.5 µM | 2 fold | >80 µM | 3.1 µM | 2 fold | 2.8 µM | 3 fold | – | – | Clc1ccc2c(c1)N(Cc1ccccc1)c1ccccc1S2 [Compound 1, 10-Benzyl-2-chloro-10H-phenothiazine] | – | – | – |
| >80 µM | – | >80 µM | >80 µM | – | >80 µM | – | inactive | – | CC(C)(C)OC(=O)c1ccc(CN2c3ccccc3Sc3ccc(Cl)cc32)cc1 [Compound 3, Tert-butyl 4-((2-chloro-10H-phenothiazin-10-yl)methyl)benzoate] | – | – | – |
| 1.5 µM | 4 fold | 1.3 µM | 5.4 µM | 2 fold | >80 µM | – | – | 4 fold | COc1cccc(CN2c3ccccc3Sc3ccc(Cl)cc32)c1 [Compound 4, 2-Chloro-10-(3-methoxybenzyl)-10H-phenothiazine] | – | – | – |
| 2.4 µM | 6 fold | 9.7 µM | 1.9 µM | 8 fold | 2.4 µM | 6 fold | – | 4 fold | COC(=O)c1cccc(CN2c3ccccc3Sc3ccc(Cl)cc32)c1 [Compound 5, Methyl 3-((2-chloro-10H-phenothiazin-10-yl)methyl)benzoate] | – | – | – |
| >80 µM | – | >80 µM | >80 µM | – | >80 µM | – | inactive | – | CC(=O)Oc1ccc(CN2c3ccccc3Sc3ccc(Cl)cc32)cc1 [Compound 6, 4-((2-Chloro-10H-phenothiazin-10-yl)methyl)phenyl acetate] | – | – | – |
| 1.1 µM | 8 fold | 1.2 µM | 1.6 µM | 8 fold | 1.1 µM | 9 fold | – | 12 fold | O=[N+]([O-])c1cccc(CN2c3ccccc3Sc3ccc(Cl)cc32)c1 [Compound 7, 2-Chloro-10-(3-nitrobenzyl)-10H-phenothiazine] | – | – | – |
| >80 µM | – | >80 µM | >80 µM | – | >80 µM | – | inactive | – | Oc1ccc(CN2c3ccccc3Sc3ccc(Cl)cc32)cc1 [Compound 8, 4-((2-Chloro-10H-phenothiazin-10-yl)methyl)phenol] | no decrease | – | – |
